Series [1] can be described thus: Two-component system (kit of parts): impregnation of TPU films, visual colouring and resistance to rubbing/washing (Beispiel 6a/6b). It counts as physicochemical. As to conditions: TPU Folien; for Abreiben / Auswaschen der Färbung: feuchter Schwamm, Wasser. The source says:
Um eine Mehrkomponenten-System bereitzustellen, bei dem vorzugsweise flüchtigere Hilfskomponenten, die gegebenenfalls regelmäßiger im Prozess ergänzt werden müssen, in einer separaten Komponente bereitgestellt werden können, wurde zunächst folgendes 2K-System getestet.
Grundkomponente (A): Eine Mischung aus 40,0% w/w Aceton, 30,0% w/w Isopropanol und […] w/w Wasser wurden homogen vermengt. Die Mischung war dicht verschlossen > 12 Monate bei Raumtemperatur lagerbar.
Zusatzkomponente (B): Eine Mischung aus 3,0% w/w Phenoxyethanol, 3,0% w/w EDTA und 0,1 bis 2,0 % Photokatalysator in Wasser wurden homogen verrührt. Die Mischung war dicht verschlossen in dunklen Flaschen > 6 Monate bei Raumtemperatur lagerbar.
Beide Lösungen wurden vor dem Prozess zu gleichen Teilen gemischt, gefolgt von einer 1:5 Verdünnung mit Wasser. Nach guter Durchmischung war die Lösung gebrauchsfertig.
Bei F-64a und F-73 war eine schwache Gelb- bzw.
Grundkomponente (A) enthielt eine Mischung aus 30,0% w/w Dimethylsuccinat, 33,0% w/w 1,2-Propandiol, 12,0% w/w Tween 20 und 25,0 % Wasser.
Zusatzkomponente (B) enthielt eine Mischung aus 2,0 Gew.-% Phenoxyethanol, 2,0 Gew.-% EDTA und 0,1 Gew.-% bis 1,6 Gew.-% Photokatalysator, jeweils bezogen auf das Gesamtgewicht der Zusatzkomponente (B), wobei die entsprechenden Bestandteile in Wasser gelöst wurden und anschließend homogen verrührt wurden.
Die Komponenten wurden vor Gebrauch im Verhältnis A zu B 2:1 gemischt, gefolgt von einer 1:1 Verdünnung mit Wasser. Nach guter Durchmischung war die Lösung gebrauchsfertig.

The nature of series [2]: Incorporation of photocatalysts into TPU films versus process time, absorption spectroscopy against blank film (Beispiele 7a-9b). The format is physicochemical. As to conditions: TPU Folie, Rezeptur 1; Beispiel 8a, Tabelle 44. As to the method:
Im nächsten Schritt wurde die Verwendbarkeit der verschiedene Photokatalysatorklassen, ausgewählt aus Phenalen-1-on-Derivaten, Curcumin-Derivaten und Porphycen-Derivaten, mit unterschiedlichen Eigenschaften - von neutral unpolar bis ionisch polar - auf Ihre Verwendbarkeit und Wirkung im Verfahren untersucht.
Zur Beurteilung der optimalen Prozesszeit bei Einsatz der Photokatalysatoren, wurden TPU Folienstücke nach Beschreibung in Beispiel 4 zu je 1, 2, 5 und 10 min in den Imprägnierlösungen behandelt, gegebenenfalls auch 30 und 60 min bei undeutlichen Ergebnissen.
Als Basisformulierung wurde Rezeptur 1 nach Beispiel 2 verwendet.
Nach der angegebenen Prozesszeit wurden die Folie entnommen, mit Wasser gewaschen und für 1h bei 40°C getrocknet/abgelüftet.
Die Folien wurden durch Absorptionsspektroskopie gegen ein Blank-Folienstück direkt vermessen, beim Maximum der Absorption des Photokatalysators. Dabei ergaben sich in Abhängigkeit der Prozesszeit folgende Werte, die in den Tabellen 40 bis

Series [3] is described as follows: Comparative examples 23-25: impregnation of unsuitable plastics or with a fluorescent dye, visual evaluation. The conditions noted are these: 0,2 mm starke Polycarbonatfolien; 60 min Einwirkzeit. It counts as physicochemical. How it is done: Die Farbstoffkonzentration in der Imprägnierlösung betrug jeweils 1 mM bei Phenalen-1-on- und Curcuminderivaten, 0,1 mM bei Prophycenderivaten.
Es wurden 0,2 mm starke Polycarbonatfolien eingesetzt und mit Imprägnierlösungen enthaltend die Photokatalysatoren F-24b, F-64a oder F-73 behandelt.
Es wurden TPU Folien eingesetzt und mit einer Imprägnierlösung enthaltend den Farbstoff 2-Chloro-6-(3-hydroxypropylamino)-1-phenalenon (CAS 113722-81-9) behandelt.

The subject of a further series is S.aureus ATCC 6538. Briefly: Antibacterial activity of impregnated films, modified ISO 22196 with illumination (Beispiele 11-16, 25). The format is cell-based. As to conditions: Beispiel 14; TPU film; Rezeptur 1 (nach Beispiel 1); 1 mM photocatalyst in impregnation solution; light 20mW/cm2 10min.
The nature of series [4]: Comparative example 26: highly polar photocatalysts in TPU films, 24 h immersion, film absorption before/after leaching. The format is physicochemical. As to conditions: 30 min impregnation, 20h airing, immersion in distilled water 24h (procedure A), film absorption maximum before/after. How it is done: Es wurden TPU Folien eingesetzt und mit Imprägnierlösungen enthaltend die folgenden Farbstoffe behandelt. Nach 30 min Einwirkzeit wurden homogen gefärbte Folien erhalten.
Die Ablüftzeit nach Behandlung betrug 20h.
Anschließend wurde ein Belastungstest Immersion mit destilliertem Wasser über 24h durchgeführt (siehe oben beschriebenes Verfahren A) ). Die Folien wurden durch Absorptionsspektroskopie direkt vermessen und die Maximum der Absorption vor/nach Auswaschen verglichen. Es ergaben sich folgende relative Werte, die auf einen starken Austrag der Photokatalysatoren schließen lassen. Die Ergebnisse sind in der Tabelle 63 dargestellt. Tabelle 63: Einbindung von Photokatalysatoren in Kunsttofffolien

For `NCCOc1ccc(/C=C/C(=O)CC(=O)/C=C/c2ccc(OCCN)cc2)cc1` [F-64a], the “Imprägnierung / Färbung der Folie” value in series [1] (2K-System Beispiel 6a (Aceton/Isopropanol)) and in series [1] (2K-System Beispiel 6b (Dimethylsuccinat/1,2-Propandiol/Tween 20)) was “schwache Gelb- bzw. Blaufärbung der Folie” each time. Moreover, the “Abreiben / Auswaschen der Färbung” value in series [1] (2K-System Beispiel 6a) and in series [1] (2K-System Beispiel 6b) was “weder mit einem feuchten Schwamm abreiben noch mit Wasser auswaschen ließ” in each case. Moreover, in series [2], the “Abs. 10 min” value is 0,55. Further, the Verfärbung result in series [3] is on record as “keine Verfärbung”. Further, the “Log10 Reduktion Hauptprobe” value in the series with S.aureus ATCC 6538 was 2,6 ± 1,7 log10.

Turning to `O=C1C=Cc2cccc3cccc1c23` [Phenalen-1-on (Verb.Bsp. 48)], in series [4], the “Verlust durch Auswaschen” value is over 50%.

As to `Cl.Cl.Cl.Cl.Cl.Cl.NCCOc1cc(/C=C/C(=O)CC(=O)/C=C/c2cc(OCCN)c(OCCN)c(OCCN)c2)cc(OCCN)c1OCCN` [SACUR-05], the “Verlust durch Auswaschen” value in series [4] is reported as over 70%.

For “2,7,12-Tris(pyridinio-p-tolyl)-17-(p-(methoxymethyl)phenyl) porphycen bromid”, the “Verlust durch Auswaschen” value in series [4] is over 66%.

(Values after patent EP4458804A1, “METHOD FOR PRODUCING AN OBJECT, PHENALEN-1-ONE COMPOUND AND USE THEREOF” (TriOptoTec GmbH, priority 2023, dated 2024).)
